Usually IC50 stands for the concentration needed to halve the response being measured. A lower IC50 goes with higher potency.

Results on 18 molecules are retold here after patent publication US9295671B2, “Benzenesulfonamide derivatives of quinoxaline, pharmaceutical compositions thereof, and their use in methods for treating cancer” (NEUPHARMA, INC., priority 2011, dated 2016).

Each structure is given as a SMILES string.

One test has as its target T1, BRAF (Homo sapiens, UniProt P15056).
T1 construct: purchased Invitrogen
The test can be described thus: LanthaScreen kinase assay, BRAF. In kind it is biochemical. Conditions: ATP 1 μM. On the procedure:
(§1) The inhibitory activities of compounds against BRAF or BRAF V600E protein were measured using Invitrogne's LanthaScreen™ kinase assay which is based on fluorescein-labeled MAP2K1 as a substrate. The assay procedure is described as follows.
(§2) The scale utilized in Table 3 is as follows: ++++ less than 50 nM; +++ between 50 and 100 nM; ++ between 100 nM and 1 μM; and + greater than 1 μM.
Background: Time-resolved FRET reads energy transfer from a long-lived donor to a nearby acceptor.

The subject of test [1] is A375 (human melanoma cell, BRAF V600E Mutant). The experiment in a line: Inhibition of cancer cell growth, MTT or MTS assay, A375. The note with it: A-375, 72 h, highest concentration 10 μM (Table 5). In kind it is cell-based. On the procedure: A375 (human melanoma cell, BRAF V600E Mutant), CHL-1 (human melanoma cell, BRAF wild type), SK-MEL-28 (human melanoma cell, BRAF V600E Mutant) and SK-MEL-31(human melanoma cell, Braf WT Mutant) were purchased from ATCC (American Type Culture Collection, Manassas, Va.). All cell lines were maintained in RPMI 1640 (Hyclone) or DMEM (Hyclone) supplemented with 10% fetal bovine serum (FBS, Hyclone), glutamine (2 mM, Hyclone), and antibiotics (penicillin 100 U/mL and streptomycin 50 μg/mL) at 37° C. in a humidified atmosphere of 5% CO2 in air.
To test IC50 of inhibition of individual compounds against each cell line, A375, SK-MEL-28and SK-MEL-31 cells were first plated in 96-well plates at densities of 3000 cells/well, and CHL-1 2500 cells/well. Cells were then incubated to allow cells to adhere and grow for 24 h. Cells were then treated with a series of concentrations of compounds for 72 h. The highest concentration of compounds was 10 μM for A375 and SK-MEL-28 cells and 100 μM for CHL-1 and SK-MEL-31 cells. Cells were then removed from the incubator and medium was removed by inverting and tapping the plates. 100 μL of MTT (0.5 mg/ml) or 10 μL or MTS was added to each well followed by an incubated at 37° C. for 4 h. Then MTT was removed and 200 μL of DMSO was added to each well, followed by reading the ODs at 570 nm after a 5 second shaking cycle in a 96-well spectrophotometer. For MTS method, MTS was not removed, and the incubated solutions were directly put in a 96-well spectrophotometer for the reading of the ODs at 492 nm.
IC50 was calculated by plotting the concentration of compound vs the percentage of inhibition in treated wells using GraphPad Prism 5. […] The scale utilized in Table 5 is as follows: +++ less than 500 nM; ++ between 500 nM and 1 μM; and + greater than 1 μM.
(Tetrazolium assays rely on reduction of a dye to a coloured formazan, in cell work by metabolically active cells.)

For another test, the target named is T2, BRAF V600E (Homo sapiens, UniProt P15056, V600E).
T2 construct: purchased Invitrogen
T2 sequence (P15056 whole entry V600E): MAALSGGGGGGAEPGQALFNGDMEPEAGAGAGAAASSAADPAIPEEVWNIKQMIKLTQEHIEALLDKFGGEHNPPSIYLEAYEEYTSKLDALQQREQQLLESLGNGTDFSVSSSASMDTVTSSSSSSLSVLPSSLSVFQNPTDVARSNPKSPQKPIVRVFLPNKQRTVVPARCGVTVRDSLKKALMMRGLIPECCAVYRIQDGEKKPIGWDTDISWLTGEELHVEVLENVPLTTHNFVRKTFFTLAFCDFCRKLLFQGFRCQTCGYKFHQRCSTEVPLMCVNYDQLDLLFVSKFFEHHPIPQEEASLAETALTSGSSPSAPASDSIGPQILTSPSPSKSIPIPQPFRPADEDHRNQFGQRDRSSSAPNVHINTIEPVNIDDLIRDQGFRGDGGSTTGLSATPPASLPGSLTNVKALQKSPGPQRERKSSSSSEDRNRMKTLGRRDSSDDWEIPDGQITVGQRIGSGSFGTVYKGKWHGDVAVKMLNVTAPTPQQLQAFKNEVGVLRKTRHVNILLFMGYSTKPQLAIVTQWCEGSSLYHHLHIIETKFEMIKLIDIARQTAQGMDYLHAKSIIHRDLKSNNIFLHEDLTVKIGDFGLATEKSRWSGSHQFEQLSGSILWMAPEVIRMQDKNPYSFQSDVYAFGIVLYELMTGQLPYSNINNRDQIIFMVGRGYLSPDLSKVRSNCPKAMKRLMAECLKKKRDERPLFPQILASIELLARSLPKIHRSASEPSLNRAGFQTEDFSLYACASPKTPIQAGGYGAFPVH
The experiment in a line: LanthaScreen kinase assay, BRAF V600E. In kind it is biochemical. The note with it: ATP 10 μM. As for the experimental part:
as §1, §2

T1 sequence (P15056 whole entry): as the sequence (P15056 whole entry V600E) above, with E600V counted along it

For `CCCS(=O)(=O)Nc1cc(F)c(F)c(C(=O)c2ccc3ncc(C)nc3c2)c1F` [Compound C19, N-(2,4,5-trifluoro-3-(3-methylquinoxaline-6-carbonyl)phenyl)propane-1-sulfonamide], the IC50 is 100 to 1000 nM against BRAF, above 1000 nM in test [1] and 100 to 1000 nM at BRAF V600E.
With `CCCS(=O)(=O)Nc1cc(F)c(F)c(C(=O)c2ccc3ncc(-n4ccnc4C)nc3c2)c1F` [Compound C20, N-(2,4,5-trifluoro-3-(3-(2-methyl-1H-imidazol-1-yl)quinoxaline-6-carbonyl)phenyl)propane-1-sulfonamide], the figures for the IC50 (on BRAF; in test [1]; on BRAF V600E) were 50 to 100 nM, below 500 nM and below 50 nM, respectively.
In the case of `CCCS(=O)(=O)Nc1cc(F)c(F)c(C(=O)c2ccc3ncc(-n4cnc(C)c4)nc3c2)c1F` [Compound C21, N-(2,4,5-trifluoro-3-(3-(4-methyl-1H-imidazol-1-yl)quinoxaline-6-carbonyl)phenyl)propane-1-sulfonamide], the half-maximal inhibitory concentration (IC50) was below 50 nM against BRAF, below 500 nM in test [1] and below 50 nM at BRAF V600E.
Consider `CCCS(=O)(=O)Nc1cc(F)c(F)c(C(=O)c2ccc3ncc(OCCOC)nc3c2)c1F` [Compound C22, N-(2,4,5-trifluoro-3-(3-(2-methoxyethoxy)quinoxaline-6-carbonyl)phenyl)propane-1-sulfonamide], for which the figures for the IC50 (against BRAF; in test [1]; at BRAF V600E) were 50 to 100 nM, below 500 nM and 50 to 100 nM, respectively.
For the molecule `CCCS(=O)(=O)Nc1cc(F)c(F)c(C(=O)c2ccc3ncc(-n4ccnc4)nc3c2)c1F` [Compound C23, N-(3-(3-(1H-imidazol-1-yl)quinoxaline-6-carbonyl)-2,4,5-trifluorophenyl)propane-1-sulfonamide], the results for the IC50 (against BRAF; in test [1]; against BRAF V600E) were below 50 nM, below 500 nM and below 50 nM, respectively.
With `CCCS(=O)(=O)Nc1cc(F)c(F)c(C(=O)c2ccc3ncc(N4CCNCC4)nc3c2)c1F` [Compound C24, N-(2,4,5-trifluoro-3-(3-(piperazin-1-yl)quinoxaline-6-carbonyl)phenyl)propane-1-sulfonamide], the IC50 is below 50 nM at BRAF, below 500 nM in test [1] and below 50 nM against BRAF V600E.
As to `CCCS(=O)(=O)Nc1cc(F)c(F)c(C(=O)c2ccc3ncc(-c4ccccc4)nc3c2)c1F` [Compound C26, N-(2,4,5-trifluoro-3-(3-phenylquinoxaline-6-carbonyl)phenyl)propane-1-sulfonamide], the IC50 against BRAF is 100 to 1000 nM; in test [1], 500 to 1000 nM; on BRAF V600E it was below 50 nM.
Regarding `CCCS(=O)(=O)Nc1cc(F)c(F)c(C(=O)c2ccc3ncc(-c4cn[nH]c4)nc3c2)c1F` [Compound C27, N-(3-(3-(1H-pyrazol-4-yl)quinoxaline-6-carbonyl)-2,4,5-trifluorophenyl)propane-1-sulfonamide], the IC50 was below 50 nM on BRAF, below 500 nM in test [1] and below 50 nM against BRAF V600E.
Turning to `CCCS(=O)(=O)Nc1cc(F)c(F)c(C(=O)c2ccc3ncc(-c4ccc(F)cc4)nc3c2)c1F` [Compound C28, N-(2,4,5-trifluoro-3-(3-(4-fluorophenyl)quinoxaline-6-carbonyl)phenyl)propane-1-sulfonamide], the IC50 against BRAF is 100 to 1000 nM; in test [1] it was 500 to 1000 nM; against BRAF V600E, 50 to 100 nM.
Consider `O=C(c1ccc2ncc(N3CCOCC3)nc2c1)c1c(F)c(F)cc(NS(=O)(=O)C2CC2)c1F` [Compound C29, N-(2,4,5-trifluoro-3-(3-morpholinoquinoxaline-6-carbonyl)phenyl)cyclopropanesulfonamide], for which the half-maximal inhibitory concentration (IC50) on BRAF is 100 to 1000 nM; in test [1] it was below 500 nM; at BRAF V600E, 100 to 1000 nM.
For the molecule `CCCS(=O)(=O)Nc1cc(F)c(F)c(C(=O)c2ccc3ncc(-c4cccnc4)nc3c2)c1F` [Compound C30, N-(2,4,5-trifluoro-3-(3-(pyridin-3-yl)quinoxaline-6-carbonyl)phenyl)propane-1-sulfonamide], the values for the IC50 (against BRAF; in test [1]; on BRAF V600E) were below 50 nM, below 500 nM and below 50 nM, respectively.
With `CCCS(=O)(=O)Nc1cc(F)c(F)c(C(=O)c2ccc3ncc(-c4ccncc4)nc3c2)c1F` [Compound C33, N-(2,4,5-trifluoro-3-(3-(pyridin-4-yl)quinoxaline-6-carbonyl)phenyl)propane-1-sulfonamide], the half-maximal inhibitory concentration (IC50) at BRAF is below 50 nM; in test [1], below 500 nM; on BRAF V600E, below 50 nM.
As to `CCCS(=O)(=O)Nc1cc(F)c(F)c(C(=O)c2ccc3ncc(-c4ccc(C)nc4)nc3c2)c1F` [Compound C34, N-(2,4,5-trifluoro-3-(3-(6-methylpyridin-3-yl)quinoxaline-6-carbonyl)phenyl)propane-1-sulfonamide], the IC50 is below 50 nM at BRAF, below 500 nM in test [1] and below 50 nM against BRAF V600E.
For the molecule `CCCS(=O)(=O)Nc1cc(F)c(F)c(C(=O)c2ccc3ncc(F)nc3c2)c1F` [Compound C35, N-(2,4,5-trifluoro-3-(3-fluoroquinoxaline-6-carbonyl)phenyl)propane-1-sulfonamide], the 50% inhibitory concentration (IC50) against BRAF is 50 to 100 nM; in test [1], above 1000 nM; against BRAF V600E it was below 50 nM.
In the same order, the values of `CCCS(=O)(=O)Nc1cc(F)c(F)c(C(=O)c2ccc3ncc(C#N)nc3c2)c1F` [Compound C36, N-(3-(3-cyanoquinoxaline-6-carbonyl)-2,4,5-trifluorophenyl)propane-1-sulfonamide] are 50 to 100 nM, 500 to 1000 nM and below 50 nM.
In the same order, the values of `CCCS(=O)(=O)Nc1ccc(F)c(C(=O)c2ccc3ncc(N4CCOCC4)nc3c2)c1F` [Compound C38, N-(2,4-difluoro-3-(3-morpholinoquinoxaline-6-carbonyl)phenyl)propane-1-sulfonamide] are 100 to 1000 nM, below 500 nM and 100 to 1000 nM.
In the case of `CCCS(=O)(=O)Nc1cc(F)c(F)c(C(=O)c2ccc3ncc(-n4cncc4C)nc3c2)c1F` [Compound C40, N-(2,4,5-trifluoro-3-(3-(5-methyl-1H-imidazol-1-yl)quinoxaline-6-carbonyl)phenyl)propane-1-sulfonamide], the 50% inhibitory concentration (IC50) was 50 to 100 nM at BRAF, below 500 nM in test [1] and below 50 nM against BRAF V600E.
Take `CCCS(=O)(=O)Nc1ccc(F)c(C(=O)c2ccc3ncc(N4CCOCC4)nc3c2)c1Cl` [Compound C41, N-(2-chloro-4-fluoro-3-(3-morpholinoquinoxaline-6-carbonyl)phenyl)propane-1-sulfonamide]: the concentration for half-maximal inhibition (IC50) against BRAF and against BRAF V600E was above 1000 nM each time.
